In assay [1] the target is T1, PRMT5-MEP50 enzyme (Homo sapiens, UniProt O14744).
T1 construct: One virus expresses full length human PRMT5 with Flag-tag at N-terminus; Flag (N); purchased Charles River (Argenta); host or cells: insect cells (Sf9), baculovirus co-infection
Briefly: In vitro assay 1b: high throughput mass spectrometer assay of SAH formation, 1.25 nM enzyme, 120 min. In kind it is biochemical. As to conditions: averaged values; PRMT5-MEP50, 1.25 nM enzyme, 120 min; read-out: pIC50 Assay 1b (converted). An excerpt:
Experimental Procedures In Vitro Assay (Assay 1a and 1b)
PRMT5-MEP50 enzyme was purchased from Charles River (Argenta). The enzyme complex was produced in insect cells (Sf9) infected simultaneously with two baculoviruses. One virus expresses full length human PRMT5 with Flag-tag at N-terminus, the second virus expresses full length MEP50 with His6-TEV cleavage at N-terminus. The protein was affinity purified using anti-Flag (M2) beads eluted with 3×FLAG peptide, followed by His-Select eluted with 0.5M imidazole. Eluted protein was then dialysed against tris-buffered saline (TBS) (pH 8.0) containing 20% glycerol and 3 mM dithiothreitol (DTT).
Full-length untagged human recombinant histone H2A (residues 1-130, Genbank Accession #NM_021052 MW=14.1 kDa) expressed in E. coli was purchased from Reaction Biology Corporation, Cat #HMT-11-146. Reagents used for making reaction buffer or stopping reaction were purchased including Tris base (Sigma Cat #T-1503), NaCl (Sigma Cat #RGF-3270), MgCl2 (Sigma Cat #M0250), DTTI (Invitrogen Cat #15508-013) and Formic Acid (Riedel deHaen, Cat #33015)
High Throughput Mass Spectrometer Assay
PRMT5 catalyzes the sequential methylations of the terminal nitrogen atoms on the guanidine groups of arginine residues within proteins using co-substrate S-adenosyl-L-methionine (AdoMet, SAM), forming mono-methyl (MMA), symmetric-dimethyl arginine (sDMA) and S-adenosyl-L-homocysteine (AdoHcy, SAH). The enzyme activity was determined by following the product SAH formation using high throughput mass spectrometry (Agilent Rapidfire 300 System coupled to a Sciex 4000 series QTrap® triple-quad MS/MS). The reaction buffer was 20 mM Tris-HCl, pH 8.5, 50 mM NaCl, 5 mM MgCl2 and 1 mM DTT. The reaction activity was stopped using 1% formic acid (final concentration).
The IC50 Studies were performed using eleven point dosing series made for each compound by serially diluted 1:2 in dimethyl sulfoxide (DMSO), with point 12 being a DMSO control. Compounds were first spotted to plates, and followed by addition of 2 μM SAM and 0.6 μM H2A (histone H2A) solution mixture. The same volume of enzyme solution was added to initiate the enzymatic reactions. The final concentrations of the reaction are at 1 μM SAM, 0.3 μM H2A and 10 nM enzyme (assay 1a) or 1.25 nM enzyme (assay 1b). The reaction was incubated at 30° C. for 60 minutes (min) when 10 nM enzyme was used and for 120 min when 1.25 nM enzyme was used. Subsequently, the reaction was quenched by addition of formic acid to a final concentration of 1%. The inhibitions of SAH formation in the presence of compounds were calculated as a percentage of the control relative to the uninhibited reaction as a function of inhibitor concentration. The data were fit as follows: Y=Bottom+(Top−Bottom)/(1+10^((log IC50−X)*h))
where IC50 is the inhibitor concentration (same unit as X) at 50% inhibition and h is the Hill slope. Y is percent of inhibition, X is log of compound concentration. Bottom and Top are the plateaus in same units as Y.

Assay [2] deals with nuclear symmetric Arginine dimethylation in A549 cells. Put plainly: PD assay (assay 2): inhibition of nuclear symmetric Arginine dimethylation (SYM10 immunohistochemistry), 48 h. As to conditions: Homo sapiens. In kind it is cell-based. The method, then:
Experimental Procedure PD Assay (Assay 2)
A549 cells (ATCC, Cat #CCL-185) were cultured in Dulbecco's Modified Eagle's Medium (DMEM) (Sigma, Cat #D5796), supplemented with 10% Fetal Calf Serum (FCS) (HyClone™, Cat #SV30160.03), 100 mM Sodium Pyruvate (Sigma, Cat #S8636), 200 mM L-Glutamine (Sigma, Cat #G7513) and 50 mg/mL gentamycin (Gibco, Cat #15750-037).
Reagents used for buffers were purchased: Dulbecco's phosphate buffered saline (DPBS) without Ca/Mg (Sigma, Cat #D8537), phosphate buffered saline (PBS) 10× (Roche, Cat #11 666 789 001), Formalin solution 10% (Sigma, HT50-1-128-4L), Methanol 100% (Sigma, Cat #32213-2.5L), Triton X-100 (Acros, Cat #215680010), Bovine Serum Albumin (BSA) (Sigma, Cat #A2153), Alexa fluor 488 goat anti-rabbit antibody (Life Technologies, Cat #A11034), HCS CellMask Deep Red Stain (Life Technologies, Cat #H32721), Hoechst Stain (Life Technologies, Cat #33258), Anti-dimethyl-Arginine, sym (SYM10) antibody (Millipore, 07-412).
Immunohistochemistry Procedure
Cells were plated at 400 cells/40 μL/well in 384 well black μplates clear bottom (Perkin Elmer) and overnight incubated at 37° C., 5% CO2. […] 80 nL of the respective dilution of the compounds was added using the Labcyte POD 810 (Labcyte) reaching a final DMSO concentration of 0.2% in cell culture. After an incubation period of 48 h at 37° C. and 5% CO2, cells were fixed in 10% formalin solution for 15 min at room temperature and 20 min in ice-cold methanol, after which they were washed 3× in DPBS. Subsequently, the cells were blocked for 1 h in blocking buffer (PBS+1% BSA and 0.5% Triton X-100) and incubated overnight at 4° C. with the SYM10 antibody diluted 1/2000 in blocking buffer. The cells were washed 3× with washing buffer (PBS+0.1% Triton X-100) and incubated with the Alexa fluor 488 goat anti-rabbit antibody diluted 1/200 in blocking buffer for 1 h at room temperature. Subsequently, they were washed 3× with washing buffer and incubated for 30 min at room temperature with PBS containing a 1/5000 dilution of Hoechst Stain and a 1/5000 dilution of the HCS CellMask Deep Red Stain. After a final wash with PBS, the plates were imaged using the 10×W lens of the Opera® system (Perkin Elmer Life Sciences) using following settings (values in nm):
In the above equations, the following variable names are used: […]
In the above equations, the following controls were used for normalization: […]
Low control: minimum level of symmetrically dimethylated Arginines (cells treated with reference compound at 10 μM).
High control: maximum level of symmetrically dimethylated Arginines (DMSO treated cells).
IC50 and pIC50 (−log IC50) values were calculated using the appropriate software.
The pIC50 values in the Table below are averaged values (Co. No. means compound number; n.d. means not determined).

The mark [3] stands for this setting: A549, averaged values, PD assay, A549 cells, symmetric Arginine dimethylation, read-out: pIC50 Assay 2 (converted).
The mark [4] stands for this setting: A549, read-out: pIC50 Assay 2 (converted).

SMILES strings stand for the structures. Read-outs that look alike come from different tables or passages of the source. Bounds are passed on as bounds.

T1 sequence (O14744 whole entry): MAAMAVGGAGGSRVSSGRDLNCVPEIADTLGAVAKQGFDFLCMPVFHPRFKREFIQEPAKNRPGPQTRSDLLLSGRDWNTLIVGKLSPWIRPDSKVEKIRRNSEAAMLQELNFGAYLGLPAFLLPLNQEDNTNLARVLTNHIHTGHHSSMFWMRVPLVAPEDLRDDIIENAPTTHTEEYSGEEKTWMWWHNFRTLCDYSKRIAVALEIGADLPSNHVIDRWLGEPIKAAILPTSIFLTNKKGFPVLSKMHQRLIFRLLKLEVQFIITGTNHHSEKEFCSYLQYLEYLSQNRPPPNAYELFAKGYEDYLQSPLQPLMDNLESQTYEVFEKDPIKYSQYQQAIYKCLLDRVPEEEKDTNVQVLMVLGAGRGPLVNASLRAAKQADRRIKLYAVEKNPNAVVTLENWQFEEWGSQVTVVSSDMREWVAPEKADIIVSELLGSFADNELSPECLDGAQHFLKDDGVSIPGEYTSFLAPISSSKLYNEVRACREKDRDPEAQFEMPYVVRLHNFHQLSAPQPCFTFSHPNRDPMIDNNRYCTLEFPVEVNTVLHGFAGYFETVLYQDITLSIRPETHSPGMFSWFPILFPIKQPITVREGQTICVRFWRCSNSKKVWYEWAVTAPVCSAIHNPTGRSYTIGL
T1 sequence (Q9BQA1 whole entry partner): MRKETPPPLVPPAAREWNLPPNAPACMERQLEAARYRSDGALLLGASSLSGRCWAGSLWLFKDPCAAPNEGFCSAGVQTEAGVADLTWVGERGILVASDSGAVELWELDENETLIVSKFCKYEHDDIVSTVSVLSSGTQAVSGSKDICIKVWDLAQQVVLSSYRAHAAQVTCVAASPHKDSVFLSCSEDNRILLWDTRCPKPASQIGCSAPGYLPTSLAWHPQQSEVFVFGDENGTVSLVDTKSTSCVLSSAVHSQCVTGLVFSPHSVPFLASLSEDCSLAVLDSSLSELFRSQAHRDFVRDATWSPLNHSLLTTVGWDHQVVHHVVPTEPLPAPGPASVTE

For the molecule `Nc1nc2cc(CC[C@H]3C[C@@H](n4ccc5c(N)ncnc54)[C@H](O)[C@@H]3O)ccc2cc1F` [Compound 159], the values for the IC50 in assay [1] and in assay [2] (setting [3]) were 0.126 nM and less than 1.17 nM, respectively.

With `CNc1ncnc2c1ccn2[C@@H]1C[C@H](COc2ccc3ccc(NCC4CC4)nc3c2)[C@@H](O)[C@H]1O` [Compound 225], the IC50 in assay [1] is 6.31 nM.

For the molecule `CNc1ncnc2c1ccn2[C@@H]1C[C@H](CCc2ccc3ccc(NC4CC4)nc3c2)[C@@H](O)[C@H]1O` [Compound 179], the IC50 in assay [1] is 0.631 nM; in assay [2] (setting [3]), 5.01 nM.

For the molecule `Nc1ncnc2c1ccn2[C@@H]1C[C@H](CCc2ccc3cc(F)c(NCC4CC4)nc3c2)[C@@H](O)[C@H]1O` [Compound 155], the IC50 is 158 nM in assay [1] and 251 nM in assay [2] (setting [3]).

On to `Nc1ncnc2c1ccn2[C@@H]1C[C@H](CCc2ccc3ccc(NCC4CC4)nc3c2)[C@@H](O)[C@H]1O` [Compound 74], for which the IC50 in assay [1] is 0.126 nM; in assay [2] (setting [4]) it was 0.398 nM.

With `CNc1ncnc2c1ccn2[C@@H]1C[C@H](COc2ccc3cc(Cl)c(N)nc3c2)[C@@H](O)[C@H]1O` [Compound 227], the IC50 in assay [1] is 1.26 nM.

As to `CNc1ncnc2c1ccn2[C@@H]1C[C@H](CCc2ccc3cc(F)c(N)nc3c2)[C@@H](O)[C@H]1O` [Compound 202], the results for the IC50 in assay [1] and in assay [2] (setting [3]) were 1.58 nM and 15.8 nM, respectively.

As for `Nc1nc2cc(CC[C@H]3O[C@@H](n4ccc5c(N)ncnc54)[C@H](O)[C@@H]3O)ccc2cc1Br` [Compound 235], the IC50 in assay [1] is 0.2 nM.

As to `CNc1nc2cc(CC[C@H]3C[C@@H](n4ccc5c(N)ncnc54)[C@H](O)[C@@H]3O)ccc2cc1F` [Compound 157], the IC50 in assay [1] is 631 nM; in assay [2] (setting [3]), 501 nM.

With `CNc1ncnc2c1ccn2[C@@H]1C[C@H](CCc2ccc3ccc(NCC4CC4)nc3c2)[C@@H](O)[C@H]1O` [Compound 209], the IC50 was 0.316 nM in assay [1] and 15.8 nM in assay [2] (setting [3]).

`Nc1nc2cc(CC[C@H]3C[C@@H](n4ccc5c(N)ncnc54)[C@H](O)[C@@H]3O)ccc2cc1Br` [Compound 80]: the IC50 in assay [2] (setting [3]) is 0.251 nM.

In the case of `CNc1ncnc2c1ccn2[C@@H]1O[C@H](COc2ccc3cc(Br)c(N)nc3c2)[C@@H](O)[C@H]1O` [Compound 232], the IC50 in assay [1] was 3.98 nM.

For the molecule `CNc1ccc2ccc(OC[C@H]3C[C@@H](n4ccc5c(NC)ncnc54)[C@H](O)[C@@H]3O)cc2n1` [Compound 226], the IC50 in assay [1] was 6.31 nM; in assay [2] (setting [3]) it was 100 nM.

On to `Nc1nc2cc(CC[C@H]3C[C@@H](n4ccc5ncccc54)[C@H](O)[C@@H]3O)ccc2cc1Cl` [Compound 248], for which the IC50 is 50.1 nM in assay [1] and 158 nM in assay [2] (setting [3]).

For `COc1ncnc2c1ccn2[C@@H]1O[C@H](CCc2ccc3cc(Cl)c(N)nc3c2)[C@@H](O)[C@H]1O` [Compound 199], the IC50 was 39.8 nM in assay [1] and 251 nM in assay [2] (setting [3]).

As to `CNc1ncnc2c1ccn2[C@@H]1C[C@H](CCc2ccc3ccc(NC4CCC4)nc3c2)[C@@H](O)[C@H]1O` [Compound 183], the IC50 was 0.501 nM in assay [1] and 6.31 nM in assay [2] (setting [3]).

Take `Nc1nc2cc(OC[C@H]3C[C@@H](n4ccc5c(N)ncnc54)[C@H](O)[C@@H]3O)ccc2cc1Cl` [Compound 223]: the values for the IC50 in assay [1] and in assay [2] (setting [3]) were 0.2 nM and 1.26 nM, respectively.

As to `Nc1nc2cc(CC[C@H]3C[C@@H](n4ccc5c(N)nc(Cl)nc54)[C@H](O)[C@@H]3O)ccc2cc1Cl` [Compound 240], the results for the IC50 in assay [1] and in assay [2] (setting [3]) were less than 0.2 nM and less than 1.17 nM, respectively.

As for `Nc1nc2cc(OC[C@H]3C[C@@H](n4ccc5c(N)ncnc54)[C@H](O)[C@@H]3O)ccc2cc1Br` [Compound 236], the IC50 in assay [1] is less than 0.2 nM.

Regarding `Nc1nc2cc(OC[C@H]3O[C@@H](n4ccc5c(N)ncnc54)[C@H](O)[C@@H]3O)ccc2cc1Br` [Compound 233], the IC50 in assay [1] is less than 0.2 nM.

On to `CNc1nc2cc(CC[C@H]3C[C@@H](n4ccc5c(NC)ncnc54)[C@H](O)[C@@H]3O)ccc2cc1F` [Compound 203], for which the IC50 was more than 2510 nM in assay [1] and 6310 nM in assay [2] (setting [3]).

In the case of `Nc1nc2cc(CC[C@H]3C[C@@H](n4ccc5cnccc54)[C@H](O)[C@@H]3O)ccc2cc1Cl` [Compound 247], in assay [1], the IC50 is 0.794 nM.

On to `COc1ncnc2c1ccn2[C@@H]1O[C@H](CCc2ccc3cc(F)c(N)nc3c2)[C@@H](O)[C@H]1O` [Compound 230], for which, in assay [1], the IC50 was 631 nM.

`Nc1nc2cc(CC[C@H]3C[C@@H](n4ccc5c(N)nccc54)[C@H](O)[C@@H]3O)ccc2cc1Br` [Compound 252]: the IC50 in assay [1] is 0.631 nM.

For `Nc1nc2cc(CC[C@H]3O[C@@H](n4ccc5c(N)ncnc54)[C@H](O)[C@@H]3O)ccc2cc1F` [Compound 231], in assay [1], the IC50 is 0.631 nM.

As for `COc1ncnc2c1ccn2[C@@H]1C[C@H](COc2ccc3cc(Cl)c(N)nc3c2)[C@@H](O)[C@H]1O` [Compound 228], the IC50 in assay [1] was 5.01 nM.

On to `Nc1ccc2ccc(CC[C@H]3C[C@@H](n4ccc5c(N)ncnc54)[C@H](O)[C@@H]3O)cc2n1` [Compound 76], for which the IC50 in assay [2] (setting [4]) is 0.158 nM.

For the molecule `Nc1nc2cc(OC[C@H]3O[C@@H](n4ccc5c(O)ncnc54)[C@H](O)[C@@H]3O)ccc2cc1Br` [Compound 234], the IC50 in assay [1] was 794 nM.

As to `CNc1ncnc2c1ccn2[C@@H]1O[C@H](CCc2ccc3cc(F)c(N)nc3c2)[C@@H](O)[C@H]1O` [Compound 229], the IC50 in assay [1] was 39.8 nM.

On to `Nc1ncnc2c1ccn2[C@@H]1C[C@H](COc2ccc3ccc(NCC4CC4)nc3c2)[C@@H](O)[C@H]1O` [Compound 224], for which the IC50 in assay [1] was less than 0.2 nM.

Turning to `Nc1nc2cc(CC[C@H]3O[C@@H](n4ccc5c(N)ncnc54)[C@H](O)[C@@H]3O)ccc2cc1C(F)(F)F` [Compound 244], in assay [1], the IC50 was 3.16 nM.

The values above are taken from patent US11318157B2, “6-6 bicyclic aromatic ring substituted nucleoside analogues for use as PRMT5 inhibitors” (Janssen Pharmaceutica NV, priority 2015, dated 2022).
